Measured values reported in ChEMBL document CHEMBL3507680, “University of Dundee, Gates Library screen for HepG2 cell viability”.

Test: Human HepG2 cell viability assay in 384 well format
Format: toxicity, cell-based
Parameters: dose 125 nL, time 70.5 hour; cytotoxicity at 70.5 h: concentration not given beside the values
Conditions: HepG2 cells, read-out: Inhibition

Structure (SMILES) | cytotoxicity at 70.5 h [%]
COCC(=O)NCCc1nc(N(C)C)ncc1-c1ccncc1 | -6.86
CC(C)C(=O)N1CCC([C@@H]2C[C@H](C(F)F)n3ncnc3N2)CC1 | 9.09
COCCNCc1cc2ccc(C)c(C)c2[nH]c1=O | 4.37
CSc1nnc(C2CCN(C(=O)N3CCCC3)CC2)n1C | -9.43
CSc1nnc(C2CCN(C(=O)N3CCCC3)CC2)n1C(C)C | 2.59
CS(=O)(=O)c1cc(Cl)cnc1C1CCCN(C(=O)C2CCOCC2)C1 (configuration not stated) | -7.95
COc1ccc(S(=O)(=O)N2CCC[C@@H]3CN(C(=O)C4CC4)C[C@@H]32)cc1F | 21.2
CCc1cccc2cc(CNCCOC)c(=O)[nH]c12 | 21.7
COc1ccc(S(=O)(=O)N2CCC[C@@H]3CN(C(=O)C4CC4)C[C@@H]32)cc1 | 50
O=C(C1CCCC1)N1CCCC([C@@H]2C[C@H](C(F)F)n3ncnc3N2)C1 (some centres not stated) | -6.92
COc1ccccc1CC(=O)N1CCN(Cc2ccco2)C[C@@H]1C | -2.18
Cn1cc(CN2CCC(c3cc(COc4ccc(Cl)cc4)[nH]n3)C2)cn1 (configuration not stated) | 0.81
CO[C@H]1CN(Cc2nc3ccccc3n2C)CC[C@@]12CCCO2 | -4.2
CNC(=O)CCc1cc(C)nc(C2CCN(C3CCCCC3)CC2)c1 | -0.853
CNC(=O)CCc1cc(C)nc(C2CCN(C(=O)CN(C)C)CC2)c1 | -3.32
O=C(c1cnc(O)c(Cl)c1)N1CCCC(c2nccs2)C1 (configuration not stated) | 6.3
Cc1ncccc1C(=O)N1CCC2(CCc3ccccc3C(=O)N2)C1 (configuration not stated) | 15.5
COc1ccc2c(c1)CC(C1CCOCC1)N(C(=O)c1ccn(C)n1)C2 (configuration not stated) | 2.06
CC(C)c1cc(C(=O)N2CCC3(CCc4ccccc4C(=O)N3)C2)no1 (configuration not stated) | 8.79
Cc1ccc(-c2nnc(C3CCCN3S(=O)(=O)c3cnn(C)c3C)o2)s1 (configuration not stated) | 2.03
CN(C)C(=O)c1c[nH]nc1-c1ccc(CNC(=O)c2cnccn2)cc1 | -1.73
CC(C)c1nccn1CCC(=O)N1CCCCC1c1ccn[nH]1 (configuration not stated) | 3.76
COc1ccc(CN(C)CC2(O)CCNC2)cc1 (configuration not stated) | 0.252

Structure (SMILES) | cytotoxicity at 70.5 h [%]
O=C(CC1CCCC1)N1CCCC1c1ccc(CN2CCOCC2)cn1 (configuration not stated) | -0.855
CCc1nccn1CCC(=O)N1CCCC1c1cncc(NC)n1 (configuration not stated) | 5.43
Cc1ncsc1C(=O)NCc1ccc(-c2n[nH]cc2C(=O)N(C)C)cc1 | -1.47
Nc1nc(N)c2c(n1)OC1(CCN(C(=O)CC3CCCCN3)CC1)C2 (configuration not stated) | -5.34
Cc1cc(N2CCCC(c3nccnc3N(C)C)C2)ncn1 (configuration not stated) | -2.83
Cc1nc(Nc2ncccn2)cc(C2CCCN2C2CCOCC2)n1 (configuration not stated) | 1.98
CN(C)C(=O)C1CN(Cc2ccccc2)CCN(S(C)(=O)=O)C1 (configuration not stated) | -6.37
CNc1cc(C2CCCN2Cc2ccccc2C(=O)O)ccn1 (configuration not stated) | -9.85
CN(C)c1cncc(C2CCN(C(=O)CO)CC2)n1 | -22.6
Cc1nc(Nc2nccs2)cc(C2CCCN2C2CCOCC2)n1 (configuration not stated) | -8.39
Cc1ccc(S(=O)(=O)N2C[C@H]3C[C@H](NC(=O)c4ccnn4C)[C@H]3C2)cc1 | 46.1
CN1CCCC(Cc2cncc(C(=O)NCC3CC3)c2)C1 (configuration not stated) | -1.13
CC(=O)N1CCN(C)CC(COCc2ccccc2)C1 (configuration not stated) | -3.41
CC(C)C1=NOC2(CCN(Cc3c[nH]c4ccccc34)CC2)C1 | 4.04
Cc1cccc(N2Cc3c(NC4CCCC4)ncnc3N(C)CC2=O)c1 | -4.33
Cc1ccc2nc(C3CCCN(Cc4ccccc4)C3)nc(O)c2c1 (configuration not stated) | 0.432
O=C1Nc2ccccc2CNC12CCN(CC1CCNC1)CC2 (configuration not stated) | -11
O=C1Nc2ccccc2CNC12CCN(CC1CCCC1)CC2 | -7.54
CC(=O)N1CCC2(CC1)CC(C(C)C)=NO2 | -9.06
COc1ccccc1-c1cc(C(=O)N(C)C)c2cnn(C)c2n1 | -11.2
NCCCC(=O)N1CCC2(CC1)CN(C(=O)c1ccc(Cl)cc1)CCO2 | -12.4
O=C(C1CCCC1)N1CC2(CCN(C3COC3)C2)OCc2ccccc21 (configuration not stated) | -17.3
O=C(C1CCCC1)N1CC2(CCN(C3COC3)CC2)Cc2ccccc21 | -21

Structure (SMILES) | cytotoxicity at 70.5 h [%]
O=C(NC1CCCCC1)N1CCn2c(nnc2C2CCCN2)C1 (configuration not stated) | -12.5
Cc1cc(C(=O)NCc2ccc(F)cc2)c2c(C3CCCN3)noc2n1 (configuration not stated) | -6.52
Cc1cc(C(=O)NCC(C)C)c2c(C3CCCN3)noc2n1 (configuration not stated) | -5.52
O=C(C1CCCC1)N1CCn2c(nnc2C2CCCNC2)C1 (configuration not stated) | -3.22
O=C(c1ccc(Cl)cc1)N1CCn2c(nn(-c3ccc(Cl)cc3)c2=O)C1 | -1.63
O=C(c1ccc(Cl)cc1)N1CCn2c(nn(-c3ccncc3)c2=O)C1 | -8.19
O=C(c1ccc(Cl)cc1)N1CC2(CCNC2)OCc2ccccc21 (configuration not stated) | -5.43
O=C(NC1CC1)C1CCc2nnc(-c3cccc(C(F)(F)F)c3)n21 (configuration not stated) | -11.5
O=C1CC2(CCN(C(=O)c3ccccc3)C2)Nc2ccccc2N1 (configuration not stated) | -17.8
COc1ccccc1-c1nc(C(=O)N(C)C)n2ccncc12 | -8.75
O=C1NC2(Cc3ccccc31)CN(CC1CCNC1)C2 (configuration not stated) | -11.5
O=C1NC2(Cc3ccccc31)CN(CC1CCCC1)C2 | -11.8
O=C1NC2(Cc3ccccc31)CN(CC1CCNCC1)C2 | 12.6
CC(C)CNC(=O)c1cc(C2CC2)nc2c1c(C1CCCN1)nn2C (configuration not stated) | 13.8
CC(=O)N1CC2(CCCCN2Cc2ccc(Cl)cc2)Cc2ccccc21 (configuration not stated) | 5.47
CC(=O)N1CC2(CCCN(Cc3ccc(Cl)cc3)C2)Cc2ccccc21 (configuration not stated) | 5.61
CC(=O)N1CC2(CCN(Cc3ccc(Cl)cc3)CC2)Cc2ccccc21 | 9.92
O=C(NCc1cccnc1)c1ccc2nccn2c1 | 1.82
O=S1(=O)NC2(CCCN(Cc3ccc(Cl)cc3)C2)COc2ccccc21 (configuration not stated) | 22.5
O=S1(=O)NC2(CCCN(Cc3ccc(F)cc3)C2)COc2ccccc21 (configuration not stated) | -3.88
CN(C)C(=O)c1nc(-c2ccc(S(C)(=O)=O)cc2)c2ccccn12 | -12.8
O=C(N1CCCCC1)N1CCN(c2ccc(Cl)nn2)C(=O)C1 | -5.68
Cc1ccc(CCN2CCCC23Cc2ccccc2CNC3=O)cc1 (configuration not stated) | -4.38

Structure (SMILES) | cytotoxicity at 70.5 h [%]
Cc1cc(C)c(CN2CCCC23Cc2ccccc2CNC3=O)c(C)c1 (configuration not stated) | -9.48
CS(=O)(=O)N1Cc2ccccc2CC2(CCN(Cc3ccccn3)C2)C1 (configuration not stated) | -10.1
CC(C)C(=O)N1Cc2ccccc2CC2(CCCN2C)C1 (configuration not stated) | -10.9
CN1CCCCC12Cc1ccccc1CN(C(=O)c1ccccc1)C2 (configuration not stated) | -5.36
O=C(c1ccc(Cl)cc1)N1CCC2(C1)C(=O)Nc1ccccc12 (configuration not stated) | -7.9
CC(=O)N1CCC2(CC1)CC(NS(C)(=O)=O)c1ccccc1O2 (configuration not stated) | -4.04
CN1Cc2ccccc2NC(=O)C12CCNC2 (configuration not stated) | -2.63
N#Cc1ccc(CN2CCCC3(Cc4ccccc4CNC3=O)C2)cc1 (configuration not stated) | 31.4
O=C1NCc2ccccc2CC12CCCN(Cc1ccsc1)C2 (configuration not stated) | 2.74
O=C1NCc2ccccc2CC12CCN(Cc1c(F)cccc1Cl)C2 (configuration not stated) | -5.69
O=C(NCC1CC1)c1cc(C2CC2)nc2onc(C3CCCNC3)c12 (configuration not stated) | -7.5
CC(C)CNC(=O)c1cc(C2CC2)nc2onc(C3CCNCC3)c12 | -3.04
O=C(c1ccc(Cl)cc1)N1CCC(N2CCCOC2=O)CC1 | -6.91
O=C(C1CCCCC1)N1CCC2(COc3ncccc3S(=O)(=O)N2)C1 (configuration not stated) | -4.42
O=C(NC1CCCCC1)N1CCCC1c1nnc2n1CCNC2 (configuration not stated) | 19.4
O=C(N1CCCCC1)N1CCCC1c1nnc2n1CCNC2 (configuration not stated) | 17.6
CN1CCC2(Cc3ccccc3CN(C(=O)c3ccc(Cl)cc3)C2)C1 (configuration not stated) | 35.9
CN1CCC2(Cc3ccccc3CN(C(=O)CCN)C2)C1 (configuration not stated) | 27.3
O=C1Nc2ccccc2CC12CCCN2Cc1ccccn1 (configuration not stated) | 29.1
CC(C)NC(=O)NCc1nnc2n1C(C(=O)N(C)C)CC2 (configuration not stated) | -3.97
CC(C)NC(=O)C1CCc2nnc(CNC(=O)C3CC3)n21 (configuration not stated) | -6.43
CN1CC(=O)N(C2CCC2)Cc2c(NC3CCNCC3)ncnc21 | -3.78
CN1CC(=O)N(C2CCNC2)Cc2c(NC3CCCC3)ncnc21 (configuration not stated) | -5.19

Structure (SMILES) | cytotoxicity at 70.5 h [%]
CN1CC(=O)N(C2CCCNC2)Cc2c(NC3CCC3)ncnc21 (configuration not stated) | -3.06
CN(Cc1nc2ccccc2[nH]1)C(=O)CN(C)c1ccc(Cl)cn1 | 7.7
NC(=O)C(NC1CCN(Cc2ccc(F)cc2)CC1)c1ccccc1 (configuration not stated) | -13.1
COc1ccccc1C(NC(=O)CN(C)C(C)C)c1noc(C)n1 (configuration not stated) | -2.25
CC(C)(CNC(=O)c1ccco1)NC(=O)OC(C)(C)C | -12.7
CC(C)(CNC(=O)c1ccc(Cl)o1)NC(=O)OC(C)(C)C | 22.2
Cn1cc(N2CCN(c3ccc(C#N)c(Cl)c3)CC2=O)cn1 | -14.1
Cn1ccc(N2CCCC(NC(=O)c3ccsc3)C2=O)n1 (configuration not stated) | 20.9
NC(=O)CCn1ccc(NCc2cc(F)ccc2Br)n1 | -10.5
O=C(O)c1cnc(OCC2CC2)c(Cl)c1 | -0.42
Cn1cc(N2CCN(c3ccc(C#N)cc3Br)CC2=O)cn1 | -4.85
CN(C)[C@@H]1CN(Cc2ccc(O)cc2)C[C@H]1c1cn(C)c2ccccc12 | 3.53
COc1ccc(C(CNS(=O)(=O)c2cn(C)nc2C)N2CCCC2)cc1 (configuration not stated) | 26.7
CNCc1ccc([C@@H]2CN(C)C[C@H]2C(N)=O)cc1 | 19.9
CNCc1ccc([C@@H]2CN(C(C)=O)C[C@H]2C(N)=O)cc1 | -7.99
Cc1noc2nc(C3CCN(Cc4cccnc4)CC3)cc(C(F)F)c12 | -3.96
O=C(Nc1cccc(C(=O)OCC2CCCN2)c1)c1ccoc1 (configuration not stated) | 5.78
O=C(OCC1CCCN1)c1cccc(NC(=O)c2ccco2)c1 (configuration not stated) | -14.8
Cc1nc[nH]c1CN(Cc1ccccc1)C1CC(C)(C)NC(C)(C)C1 | 4.53
Cc1cccc(CN2CCC(c3csc4nccn34)CC2)n1 | 0.645
